Experiments:
Experiment in all cases: cells
Conditions in all cases: Homo sapiens
[1] = system: C8166; type: functional, cell-based;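 note: growth inhibition of human C8166 cells measured by a cell viability assay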
Description: SANGER: Inhibition of human C8166 cell growth in a cell viability assay.

[2] = system: HOP-62; type: functional, cell-based;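 note: cell growth inhibition determined with a viability assay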
Description: SANGER: Inhibition of human HOP-62 cell growth in a cell viability assay.

[3] = system: SNU1; type: functional, cell-based;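 note: growth inhibition of human NCI-SNU-1 cells, measured with a cell viability assay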
Description: SANGER: Inhibition of human NCI-SNU-1 cell growth in a cell viability assay.

[4] = system: Mo; type: functional, cell-based
Description: SANGER: Inhibition of human Mo-T cell growth in a cell viability assay.

[5] = system: LU-134-A; type: functional, cell-based
Description: SANGER: Inhibition of human LU-134-A cell growth in a cell viability assay.

[6] = system: TGBC24TKB; type: functional, cell-based;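 note: growth inhibition of human TGBC24TKB cells, read out with a cell viability assay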
Description: SANGER: Inhibition of human TGBC24TKB cell growth in a cell viability assay.

[7] = system: NOMO-1; type: functional, cell-based;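 note: growth inhibition of human NOMO-1 cells measured by a cell viability assay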
Description: SANGER: Inhibition of human NOMO-1 cell growth in a cell viability assay.

[8] = system: SK-LMS-1; type: functional, cell-based;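 note: growth inhibition of human SK-LMS-1 cells, read out with a cell viability assay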
Description: SANGER: Inhibition of human SK-LMS-1 cell growth in a cell viability assay.

[9] = system: MHH-PREB-1; type: functional, cell-based;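 note: cell viability assay measuring inhibition of proliferation of human MHH-PREB-1 cells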
Description: SANGER: Inhibition of human MHH-PREB-1 cell growth in a cell viability assay.

[10] = system: OMC-1; type: functional, cell-based;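 note: growth inhibition of the OMC-1 cell line, measured by a cell viability assay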
Description: SANGER: Inhibition of human OMC-1 cell growth in a cell viability assay.

[11] = system: DOHH-2; type: functional, cell-based;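 note: growth inhibition of human DOHH-2 cells, read out with a cell viability assay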
Description: SANGER: Inhibition of human DOHH-2 cell growth in a cell viability assay.

[12] = system: NCI-H1155; type: functional, cell-based;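 note: cell growth inhibition measured by a viability assay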
Description: SANGER: Inhibition of human NCI-H1155 cell growth in a cell viability assay.

[13] = system: KY821; type: functional, cell-based;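 note: growth inhibition of human KY821 cells, read out by a cell viability assay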
Description: SANGER: Inhibition of human KY821 cell growth in a cell viability assay.

[14] = system: LXF-289 cell line; type: functional, cell-based
Description: SANGER: Inhibition of human LXF-289 cell growth in a cell viability assay.

[15] = system: ES5; type: functional, cell-based;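 note: growth inhibition of human ES5 cells, read out by a cell viability assay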
Description: SANGER: Inhibition of human ES5 cell growth in a cell viability assay.

[16] = system: KURAMOCHI; type: functional, cell-based;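 note: growth inhibition of KURAMOCHI cells, read out with a cell viability assay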
Description: SANGER: Inhibition of human KURAMOCHI cell growth in a cell viability assay.

[17] = system: MHH-NB-11; type: functional, cell-based;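 note: growth inhibition of human MHH-NB-11 cells, read out by a cell viability assay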
Description: SANGER: Inhibition of human MHH-NB-11 cell growth in a cell viability assay.

[18] = system: RPMI-8866; type: functional, cell-based
Description: SANGER: Inhibition of human RPMI-8866 cell growth in a cell viability assay.

[19] = system: HH; type: functional, cell-based
Description: SANGER: Inhibition of human HH cell growth in a cell viability assay.

[20] = system: IA-LM; type: functional, cell-based;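 note: cell viability assay measuring growth inhibition of human IA-LM cells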
Description: SANGER: Inhibition of human IA-LM cell growth in a cell viability assay.

[21] = system: KLE; type: functional, cell-based;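 note: growth inhibition of human KLE cells, read out with a cell viability assay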
Description: SANGER: Inhibition of human KLE cell growth in a cell viability assay.

[22] = system: DJM-1; type: functional, cell-based;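 note: growth inhibition of human DJM-1 cells, read out by a cell viability assay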
Description: SANGER: Inhibition of human DJM-1 cell growth in a cell viability assay.

[23] = system: U-87 MG; type: functional, cell-based, U-87MG ATCC;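 note: growth inhibition of the cells measured with a viability assay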
Description: SANGER: Inhibition of human U-87-MG cell growth in a cell viability assay.

[24] = system: P30-OHK; type: functional, cell-based;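 note: growth inhibition of the P30-OHK cell line, read out with a cell viability assay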
Description: SANGER: Inhibition of human P30-OHK cell growth in a cell viability assay.

[25] = system: HC-1; type: functional, cell-based;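 note: growth inhibition of HC-1 cells measured by a cell viability assay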
Description: SANGER: Inhibition of human HC-1 cell growth in a cell viability assay.

[26] = system: NEC8; type: functional, cell-based;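 note: growth inhibition of human NEC8 cells, read out by a cell viability assay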
Description: SANGER: Inhibition of human NEC8 cell growth in a cell viability assay.

[27] = system: NCI-H747; type: functional, cell-based;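 note: growth inhibition of human NCI-H747 cells, read out by a cell viability assay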
Description: SANGER: Inhibition of human NCI-H747 cell growth in a cell viability assay.

[28] = system: SW 962; type: functional, cell-based;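 note: growth inhibition of human SW962 cells, read out by a cell viability assay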
Description: SANGER: Inhibition of human SW962 cell growth in a cell viability assay.

[29] = system: SF-126; type: functional, cell-based;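 note: growth inhibition of human SF126 cells, read out with a cell viability assay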
Description: SANGER: Inhibition of human SF126 cell growth in a cell viability assay.

[30] = system: COLO-668; type: functional, cell-based
Description: SANGER: Inhibition of human COLO-668 cell growth in a cell viability assay.

[31] = system: SW982; type: functional, cell-based;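 note: growth inhibition of SW982 cells, read out with a cell viability assay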
Description: SANGER: Inhibition of human SW982 cell growth in a cell viability assay.

[32] = system: NOS-1; type: functional, cell-based;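 note: growth inhibition of the human NOS-1 cell line, read out with a cell viability assay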
Description: SANGER: Inhibition of human NOS-1 cell growth in a cell viability assay.

[33] = system: GCIY; type: functional, cell-based;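 note: growth inhibition of the human GCIY cell line, read out by a cell viability assay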
Description: SANGER: Inhibition of human GCIY cell growth in a cell viability assay.

[34] = system: TE-8; type: functional, cell-based;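 note: growth inhibition of TE-8 cells, measured with a cell viability readout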
Description: SANGER: Inhibition of human TE-8 cell growth in a cell viability assay.

[35] = system: QIMR-WIL; type: functional, cell-based;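 note: growth inhibition of QIMR-WIL cells, read out with a cell viability assay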
Description: SANGER: Inhibition of human QIMR-WIL cell growth in a cell viability assay.

[36] = system: 8-MG-BA; type: functional, cell-based;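 note: growth inhibition of 8-MG-BA cells, read out with a cell viability assay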
Description: SANGER: Inhibition of human 8-MG-BA cell growth in a cell viability assay.

[37] = system: EKVX; type: functional, cell-based;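 note: growth inhibition of human EKVX cells, read out with a cell viability assay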
Description: SANGER: Inhibition of human EKVX cell growth in a cell viability assay.

[38] = system: KARPAS-45; type: functional, cell-based;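 note: inhibition of cell line growth, read out through a viability assay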
Description: SANGER: Inhibition of human KARPAS-45 cell growth in a cell viability assay.

[39] = system: HCC2218; type: functional, cell-based;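 note: cell viability assay read-out, with IC50 given as the concentration that inhibits growth of the cell line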
Description: SANGER: Inhibition of human HCC2218 cell growth in a cell viability assay.

[40] = system: LAN-6; type: functional, cell-based;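 note: growth inhibition of LAN-6 cells, determined with a cell viability assay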
Description: SANGER: Inhibition of human LAN-6 cell growth in a cell viability assay.

[41] = system: NCI-H69; type: functional, cell-based;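 note: growth inhibition of the cell line, read out with a cell viability assay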
Description: SANGER: Inhibition of human NCI-H69 cell growth in a cell viability assay.

[42] = system: KARPAS-299; type: functional, cell-based
Description: SANGER: Inhibition of human KARPAS-299 cell growth in a cell viability assay.

[43] = system: MLMA; type: functional, cell-based;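 note: growth inhibition of MLMA cells (human), determined through a cell viability readout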
Description: SANGER: Inhibition of human MLMA cell growth in a cell viability assay.

[44] = system: CW-2; type: functional, cell-based;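 note: growth inhibition of CW-2 cells, read out by a cell viability assay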
Description: SANGER: Inhibition of human CW-2 cell growth in a cell viability assay.

[45] = system: BB30-HNC; type: functional, cell-based;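 note: growth inhibition of the cultured cell line, read out by a cell viability assay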
Description: SANGER: Inhibition of human BB30-HNC cell growth in a cell viability assay.

[46] = system: ONS-76; type: functional, cell-based;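 note: growth inhibition of human ONS-76 cells, read out with a cell viability assay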
Description: SANGER: Inhibition of human ONS-76 cell growth in a cell viability assay.

[47] = system: D-502MG; type: functional, cell-based
Description: SANGER: Inhibition of human D-502MG cell growth in a cell viability assay.

[48] = system: Lu-65; type: functional, cell-based;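 note: growth inhibition of Lu-65 cancer cells, read out by a cell viability assay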
Description: SANGER: Inhibition of human LU-65 cell growth in a cell viability assay.

[49] = system: LS-513; type: functional, cell-based
Description: SANGER: Inhibition of human LS-513 cell growth in a cell viability assay.

[50] = system: EW-1; type: functional, cell-based;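 note: growth inhibition of the human EW-1 cell line, read out by a cell viability assay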
Description: SANGER: Inhibition of human EW-1 cell growth in a cell viability assay.

[51] = system: CCRF-CEM; type: functional, cell-based;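 note: inhibition of CCRF-CEM cell growth, measured by a cell viability assay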
Description: SANGER: Inhibition of human CCRF-CEM cell growth in a cell viability assay.

[52] = system: NB6; type: functional, cell-based;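 note: growth inhibition of NB6 cells, read out by a cell viability assay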
Description: SANGER: Inhibition of human NB6 cell growth in a cell viability assay.

[53] = system: HCE-T; type: functional, cell-based;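 note: cell viability assay read-out, reporting inhibition of HCE-T cell growth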
Description: SANGER: Inhibition of human HCE-T cell growth in a cell viability assay.

[54] = system: KINGS-1; type: functional, cell-based;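 note: cell viability assay measuring suppression of KINGS-1 cell growth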
Description: SANGER: Inhibition of human KINGS-1 cell growth in a cell viability assay.

[55] = system: LS-1034; type: functional, cell-based
Description: SANGER: Inhibition of human LS-1034 cell growth in a cell viability assay.

[56] = system: LNCaP-Clone-FGC; type: functional, cell-based
Description: SANGER: Inhibition of human LNCaP-Clone-FGC cell growth in a cell viability assay.

[57] = system: Ramos-2G6-4C10; type: functional, cell-based;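 note: growth inhibition of the cell line, measured by a cell viability read-out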
Description: SANGER: Inhibition of human Ramos-2G6-4C10 cell growth in a cell viability assay.

[58] = system: TK-10; type: functional, cell-based;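 note: growth inhibition of TK-10 cells, read out in a cell viability assay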
Description: SANGER: Inhibition of human TK10 cell growth in a cell viability assay.

[59] = system: HuTu80; type: functional, cell-based, HUTU-80;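 note: growth inhibition of HuTu80 human cells, determined with a cell viability readout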
Description: SANGER: Inhibition of human HUTU-80 cell growth in a cell viability assay.

[60] = system: A704; type: functional, cell-based;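 note: growth inhibition of human A704 cells, read out with a cell viability assay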
Description: SANGER: Inhibition of human A704 cell growth in a cell viability assay.

[61] = system: SK-NEP-1; type: functional, cell-based
Description: SANGER: Inhibition of human SK-NEP-1 cell growth in a cell viability assay.

[62] = system: SNU-C2B; type: functional, cell-based
Description: SANGER: Inhibition of human SNU-C2B cell growth in a cell viability assay.

[63] = system: KMOE-2; type: functional, cell-based
Description: SANGER: Inhibition of human KMOE-2 cell growth in a cell viability assay.

[64] = system: KS-1; type: functional, cell-based
Description: SANGER: Inhibition of human KS-1 cell growth in a cell viability assay.

[65] = system: MSTO-211H; type: functional, cell-based
Description: SANGER: Inhibition of human MSTO-211H cell growth in a cell viability assay.

For `N#C/C(=C1/Nc2ccccc2S1)c1ccnc(NCCc2cccnc2)n1`, the IC50 [1] was 4.47 µM, the IC50 [2] was greater than 8 µM and the IC50 [3] was greater than 8 µM. It also gave an IC50 [4] greater than 8 µM, an IC50 [5] greater than 8 µM and an IC50 [6] greater than 8 µM. It also gave an IC50 [7] greater than 8 µM, an IC50 [8] of 7.38 µM and an IC50 [9] greater than 8 µM. The IC50 [10] was greater than 8 µM, the IC50 [11] was greater than 8 µM and the IC50 [12] was greater than 8 µM. It also gave an IC50 [13] greater than 8 µM, an IC50 [14] greater than 8 µM and an IC50 [15] of 6.6 µM. It also gave an IC50 [16] of 3.51 µM, an IC50 [17] greater than 8 µM and an IC50 [18] greater than 8 µM. For the same compound, the IC50 [19] was greater than 8 µM, the IC50 [20] was 2.73 µM and the IC50 [21] was greater than 8 µM. It also gave an IC50 [22] greater than 8 µM, an IC50 [23] greater than 8 µM and an IC50 [24] of 4.75 µM. For the same compound, the IC50 [25] was greater than 8 µM, the IC50 [26] was greater than 8 µM and the IC50 [27] was 6.03 µM. It also gave an IC50 [28] greater than 8 µM, an IC50 [29] greater than 8 µM and an IC50 [30] of 4.47 µM. The IC50 [31] was 1.78 µM, the IC50 [32] was 5.95 µM and the IC50 [33] was 5.48 µM. For the same compound, the IC50 [34] was 2.91 µM, the IC50 [35] was greater than 8 µM and the IC50 [36] was 3.68 µM. The IC50 [37] was greater than 8 µM, the IC50 [38] was 6.3 µM and the IC50 [39] was greater than 8 µM. The IC50 [40] was greater than 8 µM, the IC50 [41] was greater than 8 µM and the IC50 [42] was greater than 8 µM. For the same compound, the IC50 [43] was greater than 8 µM, the IC50 [44] was greater than 8 µM and the IC50 [45] was greater than 8 µM. It also gave an IC50 [46] greater than 8 µM, an IC50 [47] greater than 8 µM and an IC50 [48] greater than 8 µM. For the same compound, the IC50 [49] was greater than 8 µM, the IC50 [50] was greater than 8 µM and the IC50 [51] was greater than 8 µM. For the same compound, the IC50 [52] was greater than 8 µM, the IC50 [53] was 7.35 µM and the IC50 [54] was greater than 8 µM. For the same compound, the IC50 [55] was greater than 8 µM, the IC50 [56] was greater than 8 µM and the IC50 [57] was greater than 8 µM. For the same compound, the IC50 [58] was 3.74 µM, the IC50 [59] was greater than 8 µM and the IC50 [60] was greater than 8 µM. It also gave an IC50 [61] greater than 8 µM, an IC50 [62] of 7.85 µM and an IC50 [63] greater than 8 µM. The IC50 [64] was 6.03 µM and the IC50 [65] was greater than 8 µM.

`COc1cc(Nc2c(C#N)cnc3cc(OCCCN4CCN(C)CC4)c(OC)cc23)c(Cl)cc1Cl` [BOSUTINIB] showed an IC50 [1] greater than 2 µM, an IC50 [2] greater than 2 µM and an IC50 [3] greater than 2 µM. It also gave an IC50 [4] greater than 2 µM, an IC50 [5] greater than 2 µM and an IC50 [6] greater than 2 µM. The IC50 [7] was greater than 2 µM, the IC50 [8] was greater than 2 µM and the IC50 [9] was greater than 2 µM. It also gave an IC50 [10] greater than 2 µM, an IC50 [11] greater than 2 µM and an IC50 [12] greater than 2 µM. It also gave an IC50 [13] of 1.13 µM, an IC50 [14] greater than 2 µM and an IC50 [15] of 1.87 µM. It also gave an IC50 [16] greater than 2 µM, an IC50 [17] of 1.31 µM and an IC50 [18] of 1.26 µM. The IC50 [19] was greater than 2 µM, the IC50 [20] was greater than 2 µM and the IC50 [21] was greater than 2 µM. The IC50 [22] was greater than 2 µM, the IC50 [23] was greater than 2 µM and the IC50 [24] was greater than 2 µM. The IC50 [25] was greater than 2 µM, the IC50 [26] was greater than 2 µM and the IC50 [27] was greater than 2 µM. It also gave an IC50 [28] greater than 2 µM, an IC50 [29] greater than 2 µM and an IC50 [30] greater than 2 µM. For the same compound, the IC50 [31] was greater than 2 µM, the IC50 [32] was greater than 2 µM and the IC50 [33] was greater than 2 µM. The IC50 [34] was greater than 2 µM, the IC50 [35] was 1.09 µM and the IC50 [36] was greater than 2 µM. It also gave an IC50 [37] greater than 2 µM, an IC50 [38] of 0.925 µM and an IC50 [39] greater than 2 µM. It also gave an IC50 [40] greater than 2 µM, an IC50 [41] greater than 2 µM and an IC50 [42] greater than 2 µM. For the same compound, the IC50 [43] was 0.907 µM, the IC50 [44] was greater than 2 µM and the IC50 [45] was 1.29 µM. The IC50 [46] was 1.68 µM, the IC50 [47] was greater than 2 µM and the IC50 [48] was greater than 2 µM. For the same compound, the IC50 [49] was greater than 2 µM, the IC50 [50] was greater than 2 µM and the IC50 [51] was greater than 2 µM. For the same compound, the IC50 [52] was greater than 2 µM, the IC50 [53] was greater than 2 µM and the IC50 [54] was greater than 2 µM. It also gave an IC50 [55] greater than 2 µM, an IC50 [56] greater than 2 µM and an IC50 [57] greater than 2 µM. The IC50 [58] was greater than 2 µM, the IC50 [59] was greater than 2 µM and the IC50 [60] was greater than 2 µM. It also gave an IC50 [61] of 0.972 µM, an IC50 [62] greater than 2 µM and an IC50 [63] greater than 2 µM. For the same compound, the IC50 [64] was greater than 2 µM and the IC50 [65] was greater than 2 µM.

— ChEMBL document CHEMBL1201861, “Genomics of Drug Sensitity in Cancer screening data, Wellcome Trust Sanger Institute”
